Where two headings read alike, the source gives them in different places.
Columns and labels:
[1] = target: T1, TNAP (Homo sapiens, UniProt P05186); assay: TNAP luminescent assay (CDP-star substrate, 100 mM DEA); type: biochemical; settings: for improvement in TNAP potency over parent compound: MLS-0091995 vs CID-646303, MLS-0111547 vs MLS-0004120
T1 construct: made in house; host or cells: COS-1 cells, transient expression; dialyzed serum-free conditioned medium
T1 sequence (P05186 18-501 limits assumed): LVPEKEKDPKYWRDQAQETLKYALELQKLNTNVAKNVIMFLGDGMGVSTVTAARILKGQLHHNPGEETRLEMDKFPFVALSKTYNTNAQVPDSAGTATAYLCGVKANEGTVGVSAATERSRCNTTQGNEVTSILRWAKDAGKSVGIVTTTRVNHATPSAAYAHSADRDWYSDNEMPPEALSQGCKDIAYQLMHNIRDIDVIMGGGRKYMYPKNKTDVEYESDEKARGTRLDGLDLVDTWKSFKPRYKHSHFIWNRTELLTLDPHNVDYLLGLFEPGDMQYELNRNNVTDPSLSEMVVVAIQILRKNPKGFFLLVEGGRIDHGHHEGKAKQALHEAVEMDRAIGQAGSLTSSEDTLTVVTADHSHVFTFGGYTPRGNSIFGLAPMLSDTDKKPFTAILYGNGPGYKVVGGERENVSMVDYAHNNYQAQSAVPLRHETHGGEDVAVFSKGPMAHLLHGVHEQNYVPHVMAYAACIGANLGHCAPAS
Protocol: (§1) Development of the novel luminescent TNAP assay using CDP-star substrate and detailed protocol of its application for HTS is described in more detail elsewhere. […] Briefly, the assay was 50 μM CDP-star substrate in assay buffer containing 100 mM DEA-HCl (pH 9.8), 1 mM MgCl2, and 20 μM ZnCl2. The luminescence signal was measured after a 30-min incubation at room temperature on an EnVision plate reader (PerkinElmer, Waltham, MA). […] Detailed protocols can be found in the respective AIDs, however, the final buffer conditions were 100 mM DEA, pH 9.8, 1.0 mM MgCl2, 0.02 mM ZnCl2 for both PLAP and IAP.

[2] = target: T2, IAP (Homo sapiens, UniProt P09923); assay: IAP luminescent assay (CDP-star); type: biochemical
T2 construct: made in house; host or cells: COS-1 cells, transient expression; dialyzed serum-free conditioned medium
T2 sequence (P09923 20-503 limits assumed): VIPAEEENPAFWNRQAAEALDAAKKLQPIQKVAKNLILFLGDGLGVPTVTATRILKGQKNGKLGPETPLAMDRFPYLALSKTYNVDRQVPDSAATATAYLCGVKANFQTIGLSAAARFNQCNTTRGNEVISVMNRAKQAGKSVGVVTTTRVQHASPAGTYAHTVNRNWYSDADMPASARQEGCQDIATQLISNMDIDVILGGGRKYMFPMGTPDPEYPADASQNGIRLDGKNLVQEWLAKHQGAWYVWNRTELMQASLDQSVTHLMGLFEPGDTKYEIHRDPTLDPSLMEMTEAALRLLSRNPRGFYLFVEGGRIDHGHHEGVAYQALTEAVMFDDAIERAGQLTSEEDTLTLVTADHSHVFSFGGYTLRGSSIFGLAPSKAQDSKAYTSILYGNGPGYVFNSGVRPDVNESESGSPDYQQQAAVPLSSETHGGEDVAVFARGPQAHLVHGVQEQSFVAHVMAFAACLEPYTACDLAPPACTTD
Protocol: (§2) Selectivity of Primary Actives Against other Phosphatases: To assess the selectivity of compounds across the alkaline phosphatase family, luminescent assays were developed for human PLAP and human IAP with the same CDP-Star reagent.
as §1

[3] = target: T3, human PLAP (Homo sapiens, UniProt P05187); assay: PLAP luminescent assay (CDP-star); type: biochemical
T3 construct: made in house; host or cells: COS-1 cells, transient expression; dialyzed serum-free conditioned medium
T3 sequence (P05187 23-506 limits assumed): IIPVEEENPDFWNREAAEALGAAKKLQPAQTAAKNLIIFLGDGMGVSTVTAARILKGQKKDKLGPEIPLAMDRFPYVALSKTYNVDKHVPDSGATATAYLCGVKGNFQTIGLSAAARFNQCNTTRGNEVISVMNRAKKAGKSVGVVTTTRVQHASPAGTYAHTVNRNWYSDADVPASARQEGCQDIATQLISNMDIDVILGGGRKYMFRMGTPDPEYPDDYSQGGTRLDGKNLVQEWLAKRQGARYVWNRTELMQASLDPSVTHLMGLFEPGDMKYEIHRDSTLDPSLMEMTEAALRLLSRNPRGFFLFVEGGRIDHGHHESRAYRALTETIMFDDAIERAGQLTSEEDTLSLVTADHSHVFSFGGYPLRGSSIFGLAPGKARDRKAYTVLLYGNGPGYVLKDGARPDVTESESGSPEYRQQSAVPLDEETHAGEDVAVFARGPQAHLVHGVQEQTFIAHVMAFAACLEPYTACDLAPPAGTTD
Protocol: as §2, §1

[4] = target: T1, TNAP; assay: TNAP colorimetric assay (pNPP substrate, OD405, 1M DEA); type: biochemical
Protocol: (§3) The colorimetric TNAP assay was performed as previously described with slight modifications.

[5] = target: T1, TNAP; assay: TNAP colorimetric malachite green phosphate detection (MG) assay; type: biochemical; settings: fresh solid samples from vendors; read-out: IC50 SAR-MG
Protocol: as §3

[6] = target: T1, TNAP; parameters: method as in PMID 19556612; settings: three DEA concentrations tested; cited from earlier work
[7] = luminescence-based assay, 0.1M DEA, read-out: TNAP IC50
[8] = TNAP, read-out: IC50 (Figure 6, pyrazole series optimization)
[9] = phtalimide triazole series, read-out: IC50 TNAP- Lumi
[10] = phtalimide triazole series, read-out: IC50 IAP-Lumi
[11] = optimized pyrazole series, read-out: TNAP Lumi IC50
[12] = catechol series, read-out: IAP IC50
[13] = catechol series, read-out: PLAP IC50
[14] = compounds from MLSMR in liquid form, read-out: IC50 HTS-Color
[15] = fresh solid samples from vendors, read-out: IC50 SAR-Color
[16] = compounds from MLSMR in liquid form, read-out: IC50 HTS-Lumi
[17] = fresh solid samples from vendors, read-out: IC50 SAR-Lumi
[18] = read-out: Selectivity Panel IC50 TNAP
[19] = read-out: Selectivity Panel IC50 PLAP
[20] = read-out: Selectivity Panel IC50 IAP
[21] = bisarylsulfonamide series, NA = inactive (up to 100 µM), read-out: TNAP-Lumi IC50

O=S(=O)(Nc1cnc2ccccc2c1)c1ccccc1 [MLS-0090845]
IC50 [1, 7]: > 100000 nM

O=C(O)c1[nH]nc2c1COc1ccccc1-2 [MLS-0004120]
IC50 [1, 8]: 1300 nM
IC50 [1, 7]: 1330 nM

O=C1C2CCCCC2C(=O)N1c1nc(Cc2ccccc2)n[nH]1 (centres unmarked) [MLS-0091981]
IC50 [1, 9]: 1570 nM
IC50 [2, 10]: 1100 nM

COc1ccc(OC)c(S(=O)(=O)Nc2ccc3ncccc3c2)c1 [MLS-0111639]
activity against TNAP in vitro ([1]; luminescence-based assay): eliminates activity

O=C1C2CC=CCC2C(=O)N1c1nnc(-c2ccco2)[nH]1 (centres unmarked) [MLS-0091966]
IC50 [1, 9]: 4680 nM
selectivity for IAP over TNAP [2]: 10 fold
IC50 [2, 10]: 410 nM

COc1ccc(S(=O)(=O)Nc2cnc3ccccc3c2)cc1OC [MLS-0090842]
activity against TNAP in vitro ([1]; luminescence-based assay): inactive

O=C(NCCO)c1cc(-c2ccc(Cl)cc2Cl)n[nH]1 [MLS-0146161]
IC50 [1, 11]: 20 nM

COC(=O)c1cc(-c2ccc(Cl)cc2Cl)n[nH]1 [MLS-0091995]
improvement in TNAP potency over parent compound [1]: 2 fold
IC50 [1, 7]: 500 nM

Cc1cc(C)nc(SCC(=O)c2ccc(O)c(O)c2)n1 [MLS-0315687]
IC50 ([1]; catechol series, read-out: TNAP IC50): 8600 nM
IC50 [2, 12]: 49500 nM

CCc1nccn1CC(=O)c1ccc(O)c(O)c1 [MLS-0315848]
selectivity as inhibitor of PLAP over IAP ([3]; catechol series): over 27 fold
selectivity as inhibitor of PLAP over TNAP ([3]; catechol series): over 27 fold
IC50 [3, 13]: 4200 nM

COc1ccc(C)cc1S(=O)(=O)Nc1cccnc1 [MLS-0010847]
IC50 [4, 14]: 710 nM
IC50 [4, 15]: 830 nM
IC50 [1, 16]: 1800 nM
IC50 [1, 17]: 930 nM
IC50 [1, 18]: 930 nM
IC50 [5]: 950 nM
IC50 [3, 19]: > 100000 nM
IC50 [2, 20]: > 100000 nM

CC(C)NC(=O)c1cc(-c2ccc(Cl)cc2Cl)n[nH]1 [MLS-0146149]
IC50 [1, 11]: 24 nM

NNC(=O)c1cc(-c2ccc(Cl)cc2Cl)n[nH]1 [MLS-0146145]
IC50 [1, 11]: 52 nM

COc1cccc(S(=O)(=O)Nc2cnc3ccccc3c2)c1 [MLS-0090844]
reduction in TNAP potency compared with the lead structure CID-2931238 [1]: 100 fold
IC50 [1, 21]: 25700 nM

O=C(Cn1ccnc1)c1ccc(O)c(O)c1 [Compound 1]
IC50 [3, 13]: 2100 nM
IC50 [2, 12]: 30200 nM

O=C(CNc1nc2ccccc2[nH]1)c1ccc(O)c(O)c1 [Compound 2]
IC50 [3, 13]: 9100 nM

O=C1C2CCCCC2C(=O)N1c1nc(CCc2ccccc2)n[nH]1 (centres unmarked) [MLS-0091984]
IC50 [1, 9]: > 100000 nM

COc1ccc(OC)c(S(=O)(=O)Nc2cccnc2)c1 [MLS-0068486]
reduction in TNAP potency compared with the lead structure CID-2931238 [1]: roughly 4 fold
IC50 [1, 21]: 920 nM

Oc1cc(-c2cccc3ccccc23)[nH]n1 [MLS-0039961]
IC50 [4, 14]: 21000 nM
IC50 [4, 15]: 46000 nM
IC50 [1, 16]: 3200 nM
IC50 [1, 17]: 4600 nM
IC50 [5]: 74000 nM
IC50 [3, 19]: > 100000 nM
IC50 [2, 20]: > 100000 nM
mechanism of TNAP inhibition with respect to DEA [6]: noncompetitive

COc1ccc(OC)c(CNc2cnc3ccccc3c2)c1 [MLS-0111667]
activity against TNAP in vitro ([1]; luminescence-based assay): inactive

CN(C)C(=O)c1cc(-c2ccc(Cl)cc2Cl)n[nH]1 [MLS-0146148]
IC50 [1, 11]: 75 nM

O=C1C2C3C=CC(C3)C2C(=O)N1c1n[nH]c(CCc2ccccc2)n1 (centres unmarked) [MLS-0091982]
IC50 [1, 9]: 30600 nM

O=C(NCCO)c1cc(-c2cc(F)c(Cl)cc2Cl)n[nH]1 [MLS-0146165]
IC50 [1, 11]: 42 nM

O=C1C2CC=CCC2C(=O)N1c1nnc(CCc2ccccc2)[nH]1 (centres unmarked) [MLS-0091987]
IC50 [1, 9]: 27900 nM
selectivity for IAP over TNAP [2]: 40 fold
IC50 [2, 10]: 720 nM

O=C1C2CC=CCC2C(=O)N1c1nnc[nH]1 (centres unmarked) [MLS-0091980]
activity against TNAP in vitro ([1]; luminescence-based assay): elimination of activity
IC50 [1, 9]: > 100000 nM
activity against IAP [2]: elimination of activity
IC50 [2, 10]: > 100000 nM

COc1ccc(OC)c(C(=O)Nc2cnc3ccccc3c2)c1 [MLS-0111666]
activity against TNAP in vitro ([1]; luminescence-based assay): inactive

O=C(c1[nH]nc2c1COc1ccccc1-2)N1CCCC1 [MLS-0111547]
improvement in TNAP potency over parent compound [1]: 3 fold
IC50 [1, 8]: 500 nM
IC50 [1, 7]: 480 nM

Cc1nc2ccccc2n1CC(=O)c1ccc(O)c(O)c1 [MLS-0315854]
selectivity as inhibitor of PLAP over IAP ([3]; catechol series): 10 fold
selectivity as inhibitor of PLAP over TNAP ([3]; catechol series): 40 fold

O=C(O)c1cc(-c2ccccc2Cl)[nH]n1 [MLS-0005718]
IC50 [4, 14]: > 100000 nM
IC50 [4, 15]: > 100000 nM
IC50 [1, 8]: 1000 nM
IC50 [1, 16]: 980 nM
IC50 [1, 17]: 740 nM
IC50 [1, 18]: 740 nM
IC50 [5]: > 100000 nM
IC50 [3, 19]: > 100000 nM
IC50 [2, 20]: 44000 nM
mechanism of TNAP inhibition with respect to DEA [6]: competitive

O=C1C2CC=CCC2C(=O)N1c1nnc(-c2cccnc2)[nH]1 (centres unmarked) [MLS-0091977]
IC50 [1, 9]: 10500 nM
selectivity for IAP over TNAP [2]: 6 fold

Cc1cnn(CC(=O)c2ccc(O)c(O)c2)c1 [MLS-0390945]
selectivity as inhibitor of PLAP over IAP ([3]; catechol series): > 25 fold
selectivity as inhibitor of PLAP over TNAP ([3]; catechol series): more than 50 fold

O=C1c2ccccc2C(=O)N1c1nc(Cc2ccccc2)n[nH]1 [MLS-0091978]
IC50 [1, 9]: 670 nM

O=C1C2CC=CCC2C(=O)N1c1n[nH]c(Cc2ccccc2)n1 (centres unmarked) [MLS-0067142]
IC50 [4, 14]: > 100000 nM
IC50 [4, 15]: > 100000 nM
IC50 [1, 16]: 240 nM
IC50 [1, 9]: 210 nM
IC50 [1, 18]: 190 nM
IC50 [5]: > 100000 nM
IC50 [3, 19]: 3100 nM
IC50 [2, 10]: 540 nM
IC50 [2, 20]: 540 nM
mechanism of TNAP inhibition with respect to DEA [6]: competitive
